Tests used:
Type in all cases: in vivo
Design in all cases: key: 1 Pflanze abgestorben; 2-4 schwere Schädigung; 3: 2-4 schwere Schädigung; 2-4 schwere Schädigung; 5, 6 mittlere Schäden; 5, 6 mittlere Schäden; 7, 8 leichte Schäden; 7, 8 leichte Schäden; 9 Pflanze gedeiht normal, wie unbehandelte Kontrollpflanze
Reis [1] = experiment: Herbicidal action, pre-emergent application (greenhouse); conditions: after 3 weeks
Procedure: (§1) wurde durchfolgende Versuche ermittelt: Herbizide Wirkung bei Applikation der Wirkstoffe vor dem Auflaufen der Pflanzen (pre-emergent) Im Gewächshaus werden Pflanzensamen in Blumentöpfe von ca. 11 cm Durchmesser gesät. […] Die Töpfe werden dann im Gewächshaus unter optimalen Bedingungen für das Pflanzenwachstum, regelmässiges Bewässern, einer Temperatur von 22-25°C und 50-70% relativer Luftfeuchtigkeit gehalten. Der Versuch wird nach 3 Wochen abgebrochen und der Zustand der Pflanzen gemäss dem folgenden EWRC (European Weed Research Councel) Bewertungsschema registriert: • 1 Pflanze abgestorben • 2-4 schwere Schädigung • 5, 6 mittlere Schäden • 7, 8 leichte Schäden • 9 Pflanze gedeiht normal, wie unbehandelte Kontrollpflanze.

beta vulgaris = experiment: as above; conditions: after 3 weeks
Procedure: as §1

chrysanthemum l. = experiment: as above; conditions: after 3 weeks
Procedure: as §1

abutilon sp = experiment: as above; conditions: after 3 weeks
Procedure: as §1

viola tricolor = experiment: as above; conditions: after 3 weeks
Procedure: as §1

amarantus retrofl. = experiment: as above; conditions: after 3 weeks
Procedure: as §1

sinapis alba = experiment: as above; conditions: after 3 weeks
Procedure: as §1

chenopodium sp. = experiment: as above; conditions: after 3 weeks
Procedure: as §1

Weizen = experiment: as above; conditions: after 3 weeks
Procedure: as §1

Reis [2] = experiment: Selective herbicidal action in rice, post-emergence (flooded trays); conditions: applied as emulsion concentrate into paddy water, evaluated after 4 weeks
Procedure: (§2) Reispflänzchen, welche 25 Tage alt sind, wurden im Gewächshaus in grosse rechtackige Eternitschalen vergflanzt. Zwischen die Reiben der Reispfianzon wurden dann Samen der in Reiskulturen vorkommanden Unkräuter Echinochloa crus galli, Cyperus difformis, ? und Rotala gesät. Die Schalen wurden gut bewässert und bei einer Temperatur von ca. 25°C und hoher Luftfeuchtigkeit gehalten. Nach 12 Tagen, wenn die Unkräuter aufgelaufen sind und das 2-3 Blattstadium erreicht haben, wurde die Erde in der Schale mit einer 2,5 cm hohen Schicht Wasser bedeckt. Die Verbindung No. 2 wurde denn als Emulsionskonzentrat mittels einer-Pipette zwischen die Pflanzenreihen appliziert, wobei man das Emulsionskonzentrat so verdünnte und auftrug, dass es einer Applikationsmenge im Feld von 2 und 1 kg Wirkstoff pro Hektar entsprach. Der Versuch wurde nach 4 Wochen ausgewertat.

Cyperus difformis = experiment: as above; conditions: applied into paddy water, evaluated after 4 weeks
Procedure: as §2

Echinochloa crus galli = experiment: as above; conditions: applied into paddy water, evaluated after 4 weeks
Procedure: as §2

Rotala indica = experiment: as above; conditions: applied into paddy water, evaluated after 4 weeks
Procedure: as §2

Ammania indica = experiment: as above; conditions: applied into paddy water, evaluated after 4 weeks
Procedure: as §2

CCOC(=O)CCC(C)Oc1cc(Oc2ccc(C(F)(F)F)cc2Cl)ccc1Cl (stereo not shown) [Verbindung No. 2, 4-[3'-(2"-Chlor-4-trifluormethylphenoxy)-6'-chlorphenoxy]-valeriansäure-äthylester]
4: Selektive herbizide Wirkung (rating) (Echinochloa crus galli; 1 kg/ha) | Selektive herbizide Wirkung (rating) (Rotala indica; 1 kg/ha)
1: Zustand der Pflanzen (EWRC Bewertungsschema) (beta vulgaris; Aufwandmenge 4 kg/ha) | Zustand der Pflanzen (EWRC Bewertungsschema) (chrysanthemum l.; Aufwandmenge 2 kg/ha) | Zustand der Pflanzen (EWRC Bewertungsschema) (chrysanthemum l.; Aufwandmenge 4 kg/ha) | Zustand der Pflanzen (EWRC Bewertungsschema) (abutilon sp; Aufwandmenge 4 kg/ha) | Zustand der Pflanzen (EWRC Bewertungsschema) (viola tricolor; Aufwandmenge 4 kg/ha) | Zustand der Pflanzen (EWRC Bewertungsschema) (amarantus retrofl.; Aufwandmenge 2 kg/ha) | Zustand der Pflanzen (EWRC Bewertungsschema) (amarantus retrofl.; Aufwandmenge 4 kg/ha) | Zustand der Pflanzen (EWRC Bewertungsschema) (sinapis alba; Aufwandmenge 2 kg/ha) | Zustand der Pflanzen (EWRC Bewertungsschema) (sinapis alba; Aufwandmenge 4 kg/ha) | Zustand der Pflanzen (EWRC Bewertungsschema) (chenopodium sp.; Aufwandmenge 4 kg/ha) | Selektive herbizide Wirkung (rating) (Ammania indica; 2 kg/ha)
9: Zustand der Pflanzen (EWRC Bewertungsschema) (Reis [1]; Aufwandmenge 2 kg/ha) | Zustand der Pflanzen (EWRC Bewertungsschema) (Reis [1]; Aufwandmenge 4 kg/ha) | Zustand der Pflanzen (EWRC Bewertungsschema) (Weizen; Aufwandmenge 2 kg/ha) | Zustand der Pflanzen (EWRC Bewertungsschema) (Weizen; Aufwandmenge 4 kg/ha)
5: Zustand der Pflanzen (EWRC Bewertungsschema) (abutilon sp; Aufwandmenge 2 kg/ha) | Selektive herbizide Wirkung (rating) (Cyperus difformis; 1 kg/ha)
2: Zustand der Pflanzen (EWRC Bewertungsschema) (viola tricolor; Aufwandmenge 2 kg/ha) | Zustand der Pflanzen (EWRC Bewertungsschema) (chenopodium sp.; Aufwandmenge 2 kg/ha)
3: Zustand der Pflanzen (EWRC Bewertungsschema) (beta vulgaris; Aufwandmenge 2 kg/ha) | Selektive herbizide Wirkung (rating) (Cyperus difformis; 2 kg/ha) | Selektive herbizide Wirkung (rating) (Echinochloa crus galli; 2 kg/ha) | Selektive herbizide Wirkung (rating) (Rotala indica; 2 kg/ha) | Selektive herbizide Wirkung (rating) (Ammania indica; 1 kg/ha)
7: Selektive herbizide Wirkung (rating) (Reis [2]; 1 kg/ha) | Selektive herbizide Wirkung (rating) (Reis [2]; 2 kg/ha)
